ChEMBL document CHEMBL1806415, “Growth inhibition of Escherichia coli and methicillin-resistant Staphylococcus aureus by targeting cellular methionine aminopeptidase” (Eur J Med Chem, 2011)
≈ marks a conversion by molar mass, not a printed value. Calls of active or inactive are those of the source. The calls are words filed in the database; no cut-off is given here.

How the values were obtained:
Staphylococcus aureus [1] = assay: Antibacterial activity against […] Staphylococcus aureus ATCC 43300 assessed as growth inhibition after 10 hrs by spectrophotometry; format: functional, organism-based; details: ATCC 43300, 10 h
[2] = Inhibition of Escherichia coli recombinant MetAP expressed in Escherichia coli BL21(DE3) assessed as production of fluorescent aminomethylcoumarin using Met-AMC as substrate by fluorescence assay in presence of […]
Staphylococcus aureus [3] = assay: Antibacterial activity against methicillin-resistant Staphylococcus aureus ATCC BAA1680 assessed as growth inhibition after 10 hrs by spectrophotometry; format: functional, organism-based; details: ATCC BAA1680, 10 h
Escherichia coli [4] = assay: Antibacterial activity against Escherichia coli AS19 assessed as growth inhibition after 10 hrs by spectrophotometry; format: functional, organism-based; details: AS19, 10 h
Escherichia coli [5] = assay: Inhibition of MetAP in Escherichia coli AS19 harboring pBACE plasmid assessed as cellular accumulation of unprocessed GST after 50 hrs by mass spectrometry

| Structure (SMILES) | IC50 (Staphylococcus aureus [1]) | MIC90 (Staphylococcus aureus [1]) | IC50 [2] | IC50 (Staphylococcus aureus [3]) | MIC90 (Staphylococcus aureus [3]) | MIC90 (Escherichia coli [4]) | IC50 (Escherichia coli [4]) | inhibition (Escherichia coli [5]) |
| --- | --- | --- | --- | --- | --- | --- | --- | --- |
| CCCc1ccsc1-c1ccc(O)c(O)c1 | 13.9 µM | 16 µg/mL (≈ 68.3 µM) | 49.5 µM | 33.4 µM | 11 µg/mL (≈ 46.9 µM) | 4 µg/mL (≈ 17.1 µM) |  |  |
| CCCCc1ccsc1-c1ccc(O)c(O)c1 | 8.2 µM | 5 µg/mL (≈ 20.1 µM) | 37.3 µM | 12.4 µM | 4 µg/mL (≈ 16.1 µM) | 5 µg/mL (≈ 20.1 µM) |  |  |
| Oc1ccc(-c2ccsc2)cc1O | 11.7 µM | 11 µg/mL (≈ 57.2 µM) | 38.4 µM | 41.7 µM | 13 µg/mL (≈ 67.6 µM) | 15 µg/mL (≈ 78 µM) |  |  |
| Oc1ccc(-c2sc(Cl)c(Cl)c2Cl)cc1O | 2.8 µM | 1 µg/mL (≈ 3.38 µM) | 22.1 µM | 1 µM | 0.7 µg/mL (≈ 2.37 µM) |  | 2.3 µM |  |
| Oc1ccc(-c2sccc2Cl)cc1O | 25.8 µM | 12 µg/mL (≈ 52.9 µM) | 15.4 µM | 63.8 µM | 25 µg/mL (≈ 110 µM) | 5 µg/mL (≈ 22.1 µM) | 23.3 µM | Active |
| Cc1sc(C)c(-c2ccc(O)c(O)c2)c1Br | 12.2 µM | 18 µg/mL (≈ 60.2 µM) | 63.6 µM | 23.2 µM | 13 µg/mL (≈ 43.5 µM) | 5 µg/mL (≈ 16.7 µM) |  |  |
| Oc1ccc(-c2cc(Cl)sc2Cl)cc1O | 11.3 µM | 4 µg/mL (≈ 15.3 µM) | 51.9 µM | 4.6 µM | 2 µg/mL (≈ 7.66 µM) | 3 µg/mL (≈ 11.5 µM) |  | Active |
